Measurements published in patent US20170128518A1, “METHODS AND MATERIALS FOR IDENTIFYING AND TREATING MAMMALS RESISTANT TO PROTEASOME INHIBITOR TREATMENTS” (Mayo Foundation for Medical Education and Research, priority 2014, published 2017).
Entries after “also recorded” stand apart in the source; their conditions may differ.

Assays:
[1] = system: CD19+/CD138+ WM cells from human patients; test: Annexin-V apoptosis assay, primary patient-derived WM cells; format: cell-based
Method: FIGS. 12A-12D are a series of graphs and Western blots showing b-AP15 induction of tumor-specific apoptosis in WM cell lines and primary patient-derived WM cells. FIG. 12A is a graph plotting cell death as a percentage of control cell death for all available WM cell lines (n=6, WT and BR derivatives) after treatment with the indicated concentrations of b-AP15, followed by staining with annexin-V and propidium iodide and then flow cytometry to examine apoptosis. […] Each experiment was conducted a minimum of three times with control cells (no drug treatment) showing a viability ([…] and propidium iodide-negative population) of >85%. Following treatment, the percentage of cells affected by b-AP15 was calculated by normalizing data from treated cells relative to the control (untreated) cells. […]
Apoptosis was measured using the Annexin V binding assay kit from BD Biosciences according to the manufacturer's instructions. […] Fluorescein isothiocycanate (FITC)-labelled Annexin V (5 μl) and propidium iodide (10μ were added to each sample and incubated in the dark for 15 minutes at room temperature. The cells were subsequently analyzed by flow cytometry using BD Accuri, the C6 flow cytometer and its software. Data from 10,000 events per sample were collected and analyzed.

[2] = system: WM cell lines (BCWM.1, BCWM.1/BR, RPCI-WM1, RPCI-WM/BR); test: NanoString nCounter gene expression profiling; format: cell-based, human; conditions: 50 nmol/l (WT) or 100 nmol/l (BR), 24 hours
Method: FIGS. 14A and 14B are diagrams depicting genes altered in b-AP15 treated WM cells. BCWM.1 and RPCI-WM1 were treated with b-AP15 (50 nmol/l), and BR clones were treated with 100 nmol/1 of the DUB inhibitor for 24 hours, followed by collection of RNA for profiling using the NanoString nCounter assay. FIG. 14A is an intersect analysis in which treated (Tx) cell lines were first compared to their untreated counterparts and then against one another to delineate which genes were altered in the same orientation across all four cell lines tested. FIG. 14B is a diagram of an IPA network analysis, depicting the relationship between the 36 genes and illustrating the interaction and relative expression of these genes. The darkness of the node color denotes the degree of differential gene expression as compared to baseline.
Total RNA from four WM cell lines (BCWM.1, BCWM.1/BR, RPCI-WM1 and RPCI-WM/BR) were prepared using Exiqon miRCURY RNA isolation kit (Exiqon, Woburn, Mass. USA) following the manufacturer's instructions. RNA samples were quantitated using a ND-1000 spectrophotometer (NanoDrop) and evaluated for degradation using a 2100 Bioanalyzer (Agilent Technologies, Santa Clara, Calif., USA).
The NanoString nCounter (NanoString, Seattle, Wash.) assay was used for mRNA quantification and expression in WM cells that were treated with b-AP15, as described elsewhere (Geiss et al., Nat Biotechnol 26:317-25, 2008; and Paulus et al., Brit J Haematol 164:352-65, 2014). Briefly, a library is constructed with two sequence-specific probes for the gene of interest. Unique pairs of 3′ reporter and 5′ capture probes are developed to distinguish transcripts for the gene of interest using a color-based barcoding system. The capture probe contains a base pair sequence that is complementary to the target mRNA and linked to a biotin affinity tag, which binds the mRNA of interest. The reporter probe also is also designed to be complementary to the target mRNA, contains a base sequence that is linked to an RNA-based color-coded molecular tag that provides a signal for detection. Using this method, a distinct color code is digitally generated for each gene of interest. In our experiments, all probes were mixed together with total RNA (100 ng from each sample) in a single hybridization reaction for 12 hours at 65° C. in solution. Using the nCounter Prep Station, each probe-mRNA complex was captured post-hybridization onto a streptavidin coated surface, aligned and imaged. Each sample was scanned for 600 FOV on the nCounter Digital Analyzer. As each target mRNA is designated by its unique color code, the level of expression was quantified by counting the number of codes for each molecule. Subsequent normalization of the raw data to internal controls provided by the manufacturer was performed using the nSolver Analysis software v1.1. Data was extracted using the nCounter RCC Collector; based on the positive and negative controls, a cutoff of 20 was used to filter out transcript signals that registered at levels of background noise.
Statistical interpretation and data visualization (heat map) was conducted using Multi Experiment Viewer (MeV) from The Institute for Genomic Research (TIGR) (Saeed et al., Methods Enzymol 411:134-193, 2006; and Saeed et al., Biotechniques 34:374-378, 2003). Using the normalized data that was exported from nCounter RCC Collector, an average of mRNA transcript probe values was taken for each cell line (three biological replicates each) representing controls (untreated) and drug-treated samples, a tab-delimited text file was generated in Microsoft Excel and uploaded into MeV. Genes were log-2 transformed and mean centered. Bi-dimensional, average-linkage, unsupervised hierarchical clustering analysis was applied to find the relationships between samples and genes using the Pearson correlation coefficient.

## C=CC(=O)N1C/C(=C\c2ccc([N+](=O)[O-])cc2)C(=O)/C(=C/c2ccc([N+](=O)[O-])cc2)C1 [b-AP15]
[1]; 0.5 μmol/l, 12 hours
  apoptosis (annexin-V positivity): Significant annexin-V positivity; also recorded: Robust apoptotic cell death
[1]; 1 μmol/l
  cells undergoing total loss of viability: > 90%
[2]
  Average fold change, AKT2: −2.812 fold
  Average fold change, BIRC5: −2.209 fold
  Average fold change, BMI1: −3.09 fold
  Average fold change, CASP2: −3.679 fold
  Average fold change, CCNA2: −5.841 fold
  Average fold change, CCND2: −3 fold
  Average fold change, CCNE1: −4.193 fold
  Average fold change, CDC2: −4.668 fold
  Average fold change, CDC25B: −3.629 fold
  Average fold change, CDK4: −2.59 fold
  Average fold change, CSK: −3.871 fold
  Average fold change, E2F1: −3.634 fold
  Average fold change, EGR1: 2.27 fold
  Average fold change, ETV6: −4.643 fold
  Average fold change, FOS: 5.569 fold
  Average fold change, HDAC1: −2.887 fold
  Average fold change, HRAS: −3.277 fold
  Average fold change, IL8: 14.77 fold
  Average fold change, JUN: 5.625 fold
  Average fold change, MSH2: −4.367 fold
  Average fold change, MSH6: −4.242 fold
  Average fold change, MYB: −9.647 fold
  Average fold change, MYBL2: −2.794 fold
  Average fold change, MYC: −3.287 fold
  Average fold change, PCNA: −3.166 fold
  Average fold change, RAD54L: −3.029 fold
  Average fold change, SERPINE1: 5.734 fold
  Average fold change, SPI1: −2.522 fold
  Average fold change, SYK: −3.84 fold
  Average fold change, TFDP1: −4.261 fold
  Average fold change, TFRC: −3.192 fold
  Average fold change, TOP2A: −6.321 fold
  Average fold change, TUBB: −3.724 fold
  Average fold change, TYMS: −3.966 fold
  Average fold change, XPC: −3.045 fold
  Average fold change, XRCC5: −2.834 fold
